29 molecules from US11370798B2 (Vertex Pharmaceuticals Incorporated, priority 2012, dated 2022) can be followed below.

This assay deals with HCT116 colorectal cancer cells. Put plainly: Cisplatin sensitization assay (96 h cell viability MTS).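 Note: Test-compound concentration that lowers the Cisplatin IC50 by a set fold.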 It counts as cell-based. Particulars: compound and Cisplatin added simultaneously, Cisplatin sensitization value. On the procedure: Compounds can be screened for their ability to sensitize HCT116 colorectal cancer cells to Cisplatin using a 96 h cell viability (MTS) assay. […] Compounds and Cisplatin are then both added simultaneously to the cell media in 2-fold serial dilutions from a top final concentration of 10 μM as a full matrix of concentrations in a final cell volume of 200 μl, and the cells are then incubated at 37° C. in 5% CO2. After 96 h, 40 μl of MTS reagent (Promega G358a) is added to each well and the cells are incubated for 1 h at 37° C. in 5% CO2.
Compounds with a Cisplatin sensitization value of <0.02 μM are marked with “+++.” Compounds with a Cisplatin sensitization value>0.02 μM but <0.2 μM are marked with “++.” Compounds with a Cisplatin sensitization value>0.2 μM but <5 μM are marked with “+.”
Turning to `Nc1nn2cc(F)cnc2c1C(=O)Nc1cnccc1-c1ccc(C(=O)N2CCN(C3COC3)CC2)nc1` [I-C-52, 2-amino-6-fluoro-N-(6-(4-(oxetan-3-yl)piperazine-1-carbonyl)-[3,4′-bipyridin]-3′-yl)pyrazolo[1,5-a]pyrimidine-3-carboxamide], the “Cisplatin Sensitization Assay” value is given as “++ (Cisplatin sensitization value>0.02 μM but <0.2 μM)”. To `Nc1nn2cc(F)cnc2c1C(=O)Nc1cnccc1-c1ccc(C(=O)N2CCC(N3CCCC3)CC2)nc1` [I-C-53, 2-amino-6-fluoro-N-(6-(4-(pyrrolidin-1-yl)piperidine-1-carbonyl)-[3,4′-bipyridin]-3′-yl)pyrazolo[1,5-a]pyrimidine-3-carboxamide] belongs “+++ (Cisplatin sensitization value of <0.02 μM)”; to `Nc1nn2cc(F)cnc2c1C(=O)Nc1cnccc1-c1ccc(C(=O)N2CCC(N3CCC3)CC2)nc1` [I-C-54, 2-amino-N-(6-(4-(azetidin-1-yl)piperidine-1-carbonyl)-[3,4′-bipyridin]-3′-yl)-6-fluoropyrazolo[1,5-a]pyrimidine-3-carboxamide], “+++ (Cisplatin sensitization value of <0.02 μM)”; to `Cn1ccnc1-c1ccncc1NC(=O)c1c(N)nn2cc(F)cnc12` [I-C-55, 2-amino-6-fluoro-N-(4-(1-methyl-1H-imidazol-2-yl)pyridin-3-yl)pyrazolo[1,5-a]pyrimidine-3-carboxamide], “+ (Cisplatin sensitization value>0.2 μM but <5 μM)”. The result for `Cn1cncc1-c1ccncc1NC(=O)c1c(N)nn2cc(F)cnc12` [I-C-56, 2-amino-6-fluoro-N-(4-(1-methyl-1H-imidazol-5-yl)pyridin-3-yl)pyrazolo[1,5-a]pyrimidine-3-carboxamide] reads “+++ (Cisplatin sensitization value of <0.02 μM)”; that for `Cn1nccc1-c1ccncc1NC(=O)c1c(N)nn2cc(F)cnc12` [I-C-57, 2-amino-6-fluoro-N-(4-(1-methyl-1H-pyrazol-5-yl)pyridin-3-yl)pyrazolo[1,5-a]pyrimidine-3-carboxamide], “+++ (Cisplatin sensitization value of <0.02 μM)”; that for `Cn1c(-c2ccncc2NC(=O)c2c(N)nn3cc(F)cnc23)cccc1=O` [I-C-58, 2-amino-6-fluoro-N-(1-methyl-6-oxo-1,6-dihydro-[2,4′-bipyridin]-3′-yl)pyrazolo[1,5-a]pyrimidine-3-carboxamide], “+++ (Cisplatin sensitization value of <0.02 μM)”. To `Cn1cc(-c2ccncc2NC(=O)c2c(N)nn3cc(F)cnc23)ccc1=O` [I-C-59, 2-amino-6-fluoro-N-(1-methyl-6-oxo-1,6-dihydro-[3,4′-bipyridin]-3′-yl)pyrazolo[1,5-a]pyrimidine-3-carboxamide] belongs “++ (Cisplatin sensitization value>0.02 μM but <0.2 μM)”.

On to `Nc1nn2cc(F)cnc2c1C(=O)Nc1cnccc1-c1ccccn1` [I-C-60, N-([2,4′-bipyridin]-3′-yl)-2-amino-6-fluoropyrazolo[1,5-a]pyrimidine-3-carboxamide], for which the “Cisplatin Sensitization Assay” value is recorded as “++ (Cisplatin sensitization value>0.02 μM but <0.2 μM)”. The result for `CS(=O)(=O)c1ccc(-c2ccncc2NC(=O)c2c(N)nn3cc(F)cnc23)cc1` [I-C-61, 2-amino-6-fluoro-N-(4-(4-(methylsulfonyl)phenyl)pyridin-3-yl)pyrazolo[1,5-a]pyrimidine-3-carboxamide] reads “+++ (Cisplatin sensitization value of <0.02 μM)”; that for `Cc1nccnc1-c1ccncc1NC(=O)c1c(N)nn2cc(F)cnc12` [I-C-62, 2-amino-6-fluoro-N-(4-(3-methylpyrazin-2-yl)pyridin-3-yl)pyrazolo[1,5-a]pyrimidine-3-carboxamide], “++ (Cisplatin sensitization value>0.02 μM but <0.2 μM)”; that for `Cc1nn(C)cc1-c1ccncc1NC(=O)c1c(N)nn2cc(F)cnc12` [I-C-63, 2-amino-N-(4-(1,3-dimethyl-1H-pyrazol-4-yl)pyridin-3-yl)-6-fluoropyrazolo[1,5-a]pyrimidine-3-carboxamide], “+++ (Cisplatin sensitization value of <0.02 μM)”. The result for `Nc1nn2cc(F)cnc2c1C(=O)Nc1cnccc1-c1ccc(S(=O)(=O)N2CCC2)cc1` [I-C-64, 2-amino-N-(4-(4-(azetidin-1-ylsulfonyl)phenyl)pyridin-3-yl)-6-fluoropyrazolo[1,5-a]pyrimidine-3-carboxamide] reads “+++ (Cisplatin sensitization value of <0.02 μM)”.

On to `Cn1ncnc1-c1ccncc1NC(=O)c1c(N)nn2cc(F)cnc12` [I-C-65, 2-amino-6-fluoro-N-(4-(1-methyl-1H-1,2,4-triazol-5-yl)pyridin-3-yl)pyrazolo[1,5-a]pyrimidine-3-carboxamide], for which the “Cisplatin Sensitization Assay” value is on record as “++ (Cisplatin sensitization value>0.02 μM but <0.2 μM)”. The result for `CN1CCOC[C@@H]1c1ccc(-c2ccncc2NC(=O)c2c(N)nn3cc(F)cnc23)cc1` [I-C-66, (S)-2-amino-6-fluoro-N-(4-(4-(4-methylmorpholin-3-yl)phenyl)pyridin-3-yl)pyrazolo[1,5-a]pyrimidine-3-carboxamide] reads “+++ (Cisplatin sensitization value of <0.02 μM)”; that for `Cc1cncnc1-c1ccncc1NC(=O)c1c(N)nn2cc(F)cnc12` [I-C-67, 2-amino-6-fluoro-N-(4-(5-methylpyrimidin-4-yl)pyridin-3-yl)pyrazolo[1,5-a]pyrimidine-3-carboxamide], “++ (Cisplatin sensitization value>0.02 μM but <0.2 μM)”. To `Cn1ccc(-c2ccncc2NC(=O)c2c(N)nn3cc(F)cnc23)n1` [I-C-68, 2-amino-6-fluoro-N-(4-(1-methyl-1H-pyrazol-3-yl)pyridin-3-yl)pyrazolo[1,5-a]pyrimidine-3-carboxamide] belongs “+ (Cisplatin sensitization value>0.2 μM but <5 μM)”. To `CC(=O)N1CCC(c2ccncc2NC(=O)c2c(N)nn3cc(F)cnc23)CC1` [I-C-69, N-(4-(1-acetylpiperidin-4-yl)pyridin-3-yl)-2-amino-6-fluoropyrazolo[1,5-a]pyrimidine-3-carboxamide] belongs “+++ (Cisplatin sensitization value of <0.02 μM)”; to `Nc1nn2cc(F)cnc2c1C(=O)Nc1cnccc1C1CCN(C(=O)C2CC2)CC1` [I-C-70, 2-amino-N-(4-(1-(cyclopropanecarbonyl)piperidin-4-yl)pyridin-3-yl)-6-fluoropyrazolo[1,5-a]pyrimidine-3-carboxamide], “+++ (Cisplatin sensitization value of <0.02 μM)”; to `N#CC1(C(=O)N2CCC(c3ccncc3NC(=O)c3c(N)nn4cc(F)cnc34)CC2)CC1` [I-C-71, 2-amino-N-(4-(1-(1-cyanocyclopropanecarbonyl)piperidin-4-yl)pyridin-3-yl)-6-fluoropyrazolo[1,5-a]pyrimidine-3-carboxamide], “+++ (Cisplatin sensitization value of <0.02 μM)”. As to `Cn1nncc1-c1ccncc1NC(=O)c1c(N)nn2cc(F)cnc12` [I-C-72, 2-amino-6-fluoro-N-(4-(1-methyl-1H-1,2,3-triazol-5-yl)pyridin-3-yl)pyrazolo[1,5-a]pyrimidine-3-carboxamide], the “Cisplatin Sensitization Assay” value is on record as “+++ (Cisplatin sensitization value of <0.02 μM)”. The result for `CN1CCC(c2ccncc2NC(=O)c2c(N)nn3cc(F)cnc23)CC1=O` (centres unmarked) [I-C-73, 2-amino-6-fluoro-N-(4-(1-methyl-2-oxopiperidin-4-yl)pyridin-3-yl)pyrazolo[1,5-a]pyrimidine-3-carboxamide] reads “++ (Cisplatin sensitization value>0.02 μM but <0.2 μM)”; that for `Cn1ccc2c(NC(=O)c3c(N)nn4cc(F)cnc34)cncc21` [I-C-74, 2-amino-6-fluoro-N-(1-methyl-1H-pyrrolo[2,3-c]pyridin-4-yl)pyrazolo[1,5-a]pyrimidine-3-carboxamide], “+ (Cisplatin sensitization value>0.2 μM but <5 μM)”. The result for `Nc1nn2cc(F)cnc2c1C(=O)Nc1cnccc1C1CCOC1` (centres unmarked) [I-C-75, 2-amino-6-fluoro-N-(4-(tetrahydrofuran-3-yl)pyridin-3-yl)pyrazolo[1,5-a]pyrimidine-3-carboxamide] reads “++ (Cisplatin sensitization value>0.02 μM but <0.2 μM)”; that for `Nc1nn2cc(F)cnc2c1C(=O)Nc1cnccc1CN1CCCC1=O` [I-C-76, 2-amino-6-fluoro-N-(4-((2-oxopyrrolidin-1-yl)methyl)pyridin-3-yl)pyrazolo[1,5-a]pyrimidine-3-carboxamide], “+ (Cisplatin sensitization value>0.2 μM but <5 μM)”; that for `Cc1ncc(-c2ccncc2NC(=O)c2c(N)nn3cc(F)cnc23)n1C` [I-C-77, 2-amino-N-(4-(1,2-dimethyl-1H-imidazol-5-yl)pyridin-3-yl)-6-fluoropyrazolo[1,5-a]pyrimidine-3-carboxamide], “+++ (Cisplatin sensitization value of <0.02 μM)”. The result for `Cc1ncn(C)c1-c1ccncc1NC(=O)c1c(N)nn2cc(F)cnc12` [I-C-78, 2-amino-N-(4-(1,4-dimethyl-1H-imidazol-5-yl)pyridin-3-yl)-6-fluoropyrazolo[1,5-a]pyrimidine-3-carboxamide] reads “++ (Cisplatin sensitization value>0.02 μM but <0.2 μM)”; that for `Cn1cncc1-c1c(F)cncc1NC(=O)c1c(N)nn2cc(F)cnc12` [I-C-79, 2-amino-6-fluoro-N-(5-fluoro-4-(1-methyl-1H-imidazol-5-yl)pyridin-3-yl)pyrazolo[1,5-a]pyrimidine-3-carboxamide], “+++ (Cisplatin sensitization value of <0.02 μM)”; that for `CCn1cncc1-c1ccncc1NC(=O)c1c(N)nn2cc(F)cnc12` [I-C-80, 2-amino-N-(4-(1-ethyl-1H-imidazol-5-yl)pyridin-3-yl)-6-fluoropyrazolo[1,5-a]pyrimidine-3-carboxamide], “+++ (Cisplatin sensitization value of <0.02 μM)”.
